Results on four compounds are retold here after US20190282600A1, “COMBINATION THERAPIES TARGETING TERT DEPENDENCY FOR CANCER THERAPY” (The Wistar Institute of Anatomy and Biology, priority 2018, published 2019).

Assay [1] relates to NRAS mutant melanoma cells. The experiment in a line: Telomere dysfunction-induced foci (TIF) assay, IF-FISH. The assay is classed as cell-based, Human. Conditions: WM3000 cells transduced with TERT shRNA, NAC 1 mM for 7 days. Here is the method:
NRAS mutant melanoma cells WM3000 were transduced with TERT shRNA and treated with NAC (mM) for 7 days. […] Representative images are shown. (scale bar=10 μm). Quantification of TIF positive cells is plotted in FIG. 13b. Cells were scored as TIF positive when three or more g-H2AX foci (green) were co-localizing with telomere foci (red). Data represent average of thirteen fields imaged +/−SD.
NRAS^mut melanoma cells were treated with 6-thio-dG for 6, 12 or 18 days. As presented in FIG. 15a, relative cell number was assessed by Crystal Violet assay and calculated relative to DMSO-treated cells. Data represent average of three independent experiments +/−SD. […] NRAS^mut cells were treated with 6-thio-dG for 7 days and telomere induced foci (TIF) was determined by indirect immunofluorescence combined with fluorescence in situ hybridization (FISH) (FIG. 15c). […] Quantification of TIF assay is plotted in FIG. 15d. Cells were scored as TIF positive when four or more γ-H2AX foci (green, center row of FIG. 15c labelled as γH2AX) were co-localizing with telomere foci (red, top row of FIG. 15c labelled as Telomeres). […] P values were calculated by unpaired Student's t-test.
For TIF analysis, indirect immunofluorescence (IF) combined with fluorescence in situ hybridization (FISH) was performed as previously described with some modifications. […] TIF were quantified from at least three independent experiments.

For assay [2], the system named is NRAS mutant melanoma spheroids. Nature of the assay: 3D collagen-embedded tumor spheroids, Live/Dead staining. The assay is classed as cell-based, Human. Conditions: 6-thio-dG 5 μM and Ganetespib 5 μM, day 7. As to the method: FIGS. 6a to 6e provide results showing that combining 6-thio-dG and Gamitrinib inhibits the growth of 3D melanoma spheroids and NRAS-mutant xenograft tumors. […] 4a to 4e. On day 7, spheroids were stained with Calcein AM (live cells; green) and EtBr (dead cells; red) and imaged using an inverted microscope (4X; scale bar=250 μm). […] P values were calculated using unpaired Student's t-test. *p<0.05, ** p<0.01, ***p<0.005, when comparing vehicle control vs. combination treatment groups. As presented in FIG. 6d, treatment was discontinued after 14 days, and mice were followed until tumor volume reached a preset volume (1500 mm^3). Kaplan Meier survival curves of mice treated for 14 days. p-values were calculated by Mantel-Cox log-rank test; *p<0.05, **p<0.01, ***p<0.005. Animal weight (grams) before treatment (Start of TX) and at the end of the study (End of TX) was assessed, recorded for every mouse enrolled in the study and plotted in FIG. 6e. Mean and SEM are depicted (n=7 mice/treatment group). Statistical significance was assessed by unpaired Student's t-test.
In FIG. 17a, NRAS^mut melanoma cells were treated with 6-thio-dG (1 μM) for 7 days total. At day 5, culture medium was replaced and cells were treated with 1 μM 6-thiodG plus 1 mM Phenformin for two more days. Percent cell death was determined by flow cytometry following staining of cells with Annexin V and Propidium iodide. […]

Assay [3] concerns NRAS-WT/BRAF-WT melanoma cells. The experiment in a line: Cell death by Annexin V/PI flow cytometry. Type of assay: cell-based, Human. Conditions: 1 μM 6-thio-dG, 5 μM Gam, single agents or in combination. As to the method:
(§1) FIGS. 5a to 5e provide bar graphs showing that combination treatment with 6-Thio-dG and Gamitrinib (Gam) triggers death selectively in NRAS mutant tumor cells. NRAS-WT/BRAF-WT melanoma cells (FIG. 5a), NRAS-WT/BRAF-mut melanoma cells (FIG. 5b), NRAS mutant neuroblastoma cells (FIG. 5c), NRAS-WT/KRAS-mutant colon cancer cells (FIG. 5d), and NRAS-WT/KRAS-mutant lung cancer cells were treated with 1 μM 6-thio-dG for 5 days (FIG. 5e). At day 5, culture medium was replaced and cells treated with 1 μM 6-thio-dG plus 5 μM Gam for two more days. Cells were stained with Annexin V and PI and percent cell death was determined by FACS. Data represent average of three independent experiments +/−SEM; p values were calculated using un-paired Student's t-test; *p<0.05; **p<0.001.
(§2) Cells were seeded in 96-well plates and treated with drugs. After 6 days, cell viability was assessed following 6h incubation with […] Alamar Blue (ThermoFisherScientific, Philadelphia, Pa.) by measuring fluorescence using an EnVision Xcite Multilabel plate reader (Perkin Elmer, Waltham, Mass.). Cell death was determined by flow cytometry using PSVue-643 (Molecular Targeting Technologies) or Annexin V (640919, Biolegend, San Diego, Calif.) and Propidium Iodide (Sigma) staining. Samples were analyzed using a BD LSRII flow cytometer (BD Biosciences, San Jose, Calif.).
(A flow cytometer gives signals particle by particle.)

Assay [4] concerns BRAF mutant melanoma cells. The experiment in a line: Cell death by Annexin V/PI flow cytometry. The assay is classed as cell-based, Human. The following applies: 1 μM 6-thio-dG, 5 μM Gam, single agent or in combination. Here is the method: as §1, §2
Assay [5] concerns NRAS mutant melanoma cells. Nature of the assay: Cell death by flow cytometry (PSVue or Annexin V/PI). Conditions: cells transduced with TERT shRNA, 7 days post infection 5 μM Gamitrinib for 48 h. The assay is classed as cell-based, Human. Here is the method: FIGS. 2a to 2c show NRAS^mut melanoma cells (FIG. 2a), BRAF-V600E/NRAS mutant cells derived from melanoma patients resistant to BRAF/MEK inhibitors (FIG. 2b), or non-transformed melanocytes and fibroblasts (FIG. 2c) were treated with 6-thio-dG for 7 days. Cell viability was measured by Alamar Blue assay and calculated relative to DMSO-treated cells. […] Cell death was assessed by PSVUe staining. Percent of apoptotic cells is shown. […] Mean TRF length expressed as kilobase pairs is indicated at the bottom. […] FIG. 2g provides a bar graph showing that DNA damage was assessed by γH2AX staining. Data represent average from three independent experiments ±SEM. *p<0.05; **p<0.01; ***p<0.005 in unpaired Student's t-test. As presented in FIG. 2h, mice bearing established WM3000 or M93-047 NRAS^mut tumors were treated with vehicle control or 6-thio-dG (2.5 mg/kg i.p; q.d). Tumor volume was measured and average tumor volume (n=4) ±SEM was plotted vs. time.
FIGS. 3a to 3g provides graphs showing that telomere dysfunction enhances oxidative stress leading to upregulation of an antioxidant program. […] Mitochondrial superoxide production was measured by MitoSox Red fluorescence (FIGS. 3c, and 3d) and expressed as fluorescence relative to vector or DMSO controls. […] FIG. 3f provides a bar graph showing that SOD2 was silenced using shRNA. Transduced M93-047 cells were treated with DMSO or 1 μM of 6-thio-dG and cell death was assessed by Annexin V/PI straining. As presented in FIG. 3g, M93-047 cells were transduced with a SOD2 lentiviral construct or empty vector control (pLX304). Transduced cells were treated with increasing doses (1, 2.5 and 5 μM) of 6-thio-dG for 7 days and cell death was assessed. Data represent average from three independent experiments ±SEM. *p<0.05; **p<0.01; ***p<0.005 in unpaired Student's t-test.
FIGS. 4a to 4e provides bar graphs showing that induction of telomere and mitochondrial dysfunction triggers cell death in NRAS mutant melanoma. […] Cell death was assessed by Annexin V and PI staining. […] Cells were stained with Annexin V and PI and percent cell death was determined by flow cytometry. […] P values were calculated using unpaired Student's t-test; * p<0.05; *** p<0.005.
As presented in FIG. 16a, SOD2 was silenced using shRNA. Transduced WM3000 cells were treated with DMSO or 1 μM of 6-thio-dG and cell death was assessed by Annexin V/PI straining. […] Transduced cells were treated with increasing doses (1, 2.5 and 5 μM) of 6-thio-dG for 10 days and cell death was assessed. […]
In FIG. 17a, NRAS^mut melanoma cells were treated with 6-thio-dG (1 μM) for 7 days total. […] Percent cell death was determined by flow cytometry following staining of cells with Annexin V and Propidium iodide. […]

For a further assay, the system named is NRAS mutant cells. Conditions: Chae et al., 2012; cited from earlier work.
The next assay deals with SOD2. Conditions: Siegelin et al., 2011; cited from earlier work.
Another assay deals with KRAS mutant HCT116 cells. The experiment in a line: Cell death by Annexin V/PI flow cytometry. Type of assay: cell-based. The following applies: 1 μM 6-thio-dG, 5 μM Gam. Here is the method:
as §1, §2

The test system of assay [6] is NRAS mutant SKNAS neuroblastoma cells. Nature of the assay: Cell death by Annexin V/PI flow cytometry. The assay is classed as cell-based. The following applies: 1 μM 6-thio-dG, 5 μM Gam, single agents or in combination. Here is the method: as §1, §2
The subject of a further assay is KRAS mutant A549 cells. Nature of the assay: Cell death by Annexin V/PI flow cytometry. The following applies: 1 μM 6-thio-dG, 5 μM Gam. The assay is classed as cell-based. Here is the method: as §1, §2
Assay [7] concerns prostate, breast and lung cancer, BRAF-V600E-mutant melanoma. The following applies: Chae et al., 2012; cited from earlier work.
For assay [8] the following is noted: literature; cited from earlier work.
The conditions of assay [9]: literature; cited from earlier work. This is another data set of the same source.

As to `CC(=O)N[C@@H](CS)C(=O)O` [NAC, N-acetyl-L-cysteine], the “number of TIF” value in assay [1] is reported as “attenuated the number of TIF”.

`CC(C)c1cc(-c2n[nH]c(=O)n2-c2ccc3c(ccn3C)c2)c(O)cc1O` [ganetespib]: in [2], the “enhancement of 6-Thio-dG efficacy in spheroids” value is listed as “did not enhance the efficacy of 6-Thio-dG”.

On to Gamitrinib, for which the cell death entry in assay [3] is “did not induce cell death”; in [4] it was 75-80%; in the assay with KRAS mutant HCT116 cells, “did not induce substantial death”; in [6], “triggered significant death”; in the assay on KRAS mutant A549 cells it was “did not induce substantial death”. The “cell death (Annexin V/PI)” value in assay [5] is on record as “enhanced the cytotoxic effects of Gamitrinib”. Moreover, the “anti-cancer activity as a single agent” value in the assay with NRAS mutant cells is listed as “limited activity”. Also, the SOD2 levels result in the assay with SOD2 is recorded as “downregulate SOD2 levels”. Moreover, in [7], the mitochondrial membrane potential entry was “rapid and complete loss of mitochondrial membrane potential”.

Take imetelstat: the efficacy result in [8] was “efficacy”. Further, in [9], the activity result is given as “limited activity”.
